Here are results for 33 compounds from patent publication US9156872B2, “2′-azido substituted nucleoside derivatives and methods of use thereof for the treatment of viral diseases” (priority 2011, dated 2015).

A word on the EC50: it is the concentration giving half of the maximal effect.

The assay deals with HCV replicon cells. In words: Cell-based HCV replicon assay (replicon RNA by Taqman real time PCR). The settings on record: read-out: 1b EC50. For orientation: Replicon systems follow genome replication, usually without infectious particles.
Where [1] appears, read: HCV replicon 1b, cells harvested on day 3.

Read-outs that look alike come from different tables or passages of the source.

Turning to `COC(=O)[C@H](C)NP(=O)(OC[C@H]1O[C@@H](n2ccc(N)nc2=O)[C@](C)(N=[N+]=[N-])[C@@H]1O)Oc1ccccc1Cl` (single isomer, unassigned) [Compound 202], the concentration for a half-maximal effect (EC50) turned out to be 10 µM. As for `COC(=O)[C@H](C)NP(=O)(OC[C@H]1O[C@@H](n2ccc(N)nc2=O)[C@](C)(N=[N+]=[N-])[C@@H]1O)Oc1ccc(F)cc1` (stereo partly drawn) [Compound 36], the EC50 (Hepatitis C virus, 72 h) was 40 µM. Regarding `CC(C)OC(=O)[C@H](C)NP(=O)(OC[C@H]1O[C@@H](n2ccc(N)nc2=O)[C@](C)(N=[N+]=[N-])[C@@H]1O)Oc1ccccc1Cl` (stereo partly drawn) [Compound 96], the half-maximal effective concentration (EC50) was 0.6 µM. With `CC(C)COC(=O)[C@H](C)NP(=O)(OC[C@H]1O[C@@H](n2ccc(N)nc2=O)[C@](C)(N=[N+]=[N-])[C@@H]1O)Oc1ccccc1` (stereo partly drawn) [Compound 48], under “Hepatitis C virus, 72 h”, the EC50 amounted to 3.1 µM. On to `C[C@H](NP(=O)(OC[C@H]1O[C@@H](n2ccc(=O)[nH]c2=O)[C@](C)(N=[N+]=[N-])[C@@H]1O)Oc1ccc(F)cc1)C(=O)OC1CCCCC1` (stereo partly drawn) [Compound 90], for which the EC50 was 2.1 µM. On the same count and under the same terms, the same measure for `CCOc1nc(N)nc2c1ncn2[C@@H]1O[C@H](COP(=O)(N[C@@H](C)C(=O)OC(C)C)Oc2ccccc2)[C@@H](O)[C@@]1(C)N=[N+]=[N-]` (single isomer, unassigned) [Compound 165]: 6.2 µM. As to `COP1(=O)OC[C@H]2O[C@@H](n3ccc(=O)[nH]c3=O)[C@](C)(N=[N+]=[N-])[C@@H]2O1` (stereo partly drawn) [Compound 18], the EC50 (Hepatitis C virus, 72 h) was greater than 100 µM. Regarding `CCCOC(=O)[C@H](C)NP(=O)(OC[C@H]1O[C@@H](n2ccc(=O)[nH]c2=O)[C@](C)(N=[N+]=[N-])[C@@H]1O)Oc1cccc2ccccc12` (stereo partly drawn) [Compound 374], the EC50 (Hepatitis C virus, 72 h) came to 5.6 µM.

As to `C[C@@]1(N=[N+]=[N-])[C@@H]2OP(=O)(OC3CCCC3)OC[C@H]2O[C@H]1n1ccc(=O)[nH]c1=O` (single isomer, unassigned) [Compound 562], under setting [1], the half-maximal effective concentration (EC50) turned out to be 0.4 µM. In the case of `COC(=O)[C@H](C)NP(=O)(OC[C@H]1O[C@@H](n2ccc(=O)[nH]c2=O)[C@](C)(N=[N+]=[N-])[C@@H]1O)Oc1cccc2ccccc12` (stereo partly drawn) [Compound 235], the EC50 amounted to 0.003 µM. `C[C@H](NP(=O)(OC[C@H]1O[C@@H](n2ccc(=O)[nH]c2=O)[C@](C)(N=[N+]=[N-])[C@@H]1O)Oc1ccc(F)cc1)C(=O)OC1CCCCC1` (single isomer, unassigned) [Compound 232]: the EC50 was greater than 100 µM. Regarding `COc1nc(N)nc2c1ncn2[C@@H]1O[C@H](COP(=O)(N[C@@H](C)C(=O)OC2CCCCC2)Oc2ccc(Cl)cc2)[C@@H](O)[C@@]1(C)N=[N+]=[N-]` (single isomer, unassigned) [Compound 272], the EC50 (Hepatitis C virus, 72 h) came to 3.7 µM. In the case of `CC(C)COC(=O)[C@H](C)NP(=O)(OC[C@H]1O[C@@H](n2ccc(=O)[nH]c2=O)[C@](C)(N=[N+]=[N-])[C@@H]1O)Oc1ccccc1` (stereo partly drawn) [Compound 37], the EC50 amounted to 3.5 µM. On to `CC(C)OC(=O)[C@H](C)NP(=O)(OC[C@H]1O[C@@H](n2ccc(N)nc2=O)[C@](C)(N=[N+]=[N-])[C@@H]1O)Oc1ccccc1Cl` (single isomer, unassigned) [Compound 203], for which the EC50 came out at 20 µM. The same measure, in the same setting: the same measure for `C[C@H](NP(=O)(OC[C@H]1O[C@@H](n2ccc(=O)[nH]c2=O)[C@](C)(N=[N+]=[N-])[C@@H]1O)Oc1ccccc1)C(=O)OCC(C)(C)C` (single isomer, unassigned) [Compound 153]: 19 µM; for `CCOc1nc(N)nc2c1ncn2[C@@H]1O[C@H](COP(=O)(N[C@@H](C)C(=O)OC)Oc2ccc(F)cc2)[C@@H](O)[C@@]1(C)N=[N+]=[N-]` (single isomer, unassigned) [Compound 174]: 0.5 µM.

For `COc1nc(N)nc2c1ncn2[C@@H]1O[C@H](COP(=O)(N[C@@H](C)C(=O)OC(C)C)Oc2ccc(F)cc2)[C@@H](O)[C@@]1(C)N=[N+]=[N-]` (stereo partly drawn) [Compound 243], the EC50 (Hepatitis C virus, 72 h) turned out to be 1.4 µM. `C[C@H](NP(=O)(OC[C@H]1O[C@@H](n2ccc(N)nc2=O)[C@](C)(N=[N+]=[N-])[C@@H]1O)Oc1ccccc1)C(=O)OCc1ccccc1` (single isomer, unassigned) [Compound 192]: the concentration for a half-maximal effect (EC50) is 19 µM. With `CCOC(=O)[C@H](C)NP(=O)(OC[C@H]1O[C@@H](n2ccc(N)nc2=O)[C@](C)(N=[N+]=[N-])[C@@H]1O)Oc1ccccc1Cl` (stereo partly drawn) [Compound 184], the EC50 is 5.7 µM. Consider `C[C@H](NP(=O)(OC[C@H]1O[C@@H](n2ccc(N)nc2=O)[C@](C)(N=[N+]=[N-])[C@@H]1O)Oc1ccc(Cl)cc1)C(=O)OC1CCCCC1` (single isomer, unassigned) [Compound 339], for which the EC50 (Hepatitis C virus, 72 h) was determined as 14 µM.

Consider `CCCOP1(=O)OC[C@H]2O[C@@H](n3ccc(=O)[nH]c3=O)[C@](C)(N=[N+]=[N-])[C@@H]2O1` (stereo partly drawn) [Compound 86], for which the EC50 under setting [1] is greater than 100 µM. Regarding `CCOC(=O)[C@H](C)NP(=O)(OC[C@H]1O[C@@H](n2ccc(=O)[nH]c2=O)[C@](C)(N=[N+]=[N-])[C@@H]1O)Oc1ccc(Cl)cc1` (stereo partly drawn) [Compound 49], the concentration giving a half-maximal response (EC50) (Hepatitis C virus, 72 h) turned out to be 5.3 µM.

Take `CC(C)OP1(=O)OC[C@H]2O[C@@H](n3ccc(N)nc3=O)[C@](C)(N=[N+]=[N-])[C@@H]2O1` (stereo partly drawn) [Compound 19]: for the setting “Hepatitis C virus, 72 h, HCV replicon 1b, cells harvested on day 3”, the EC50 is greater than 100 µM.

Turning to `CCOC(=O)[C@H](C)NP(=O)(OC[C@H]1O[C@@H](n2ccc(=O)[nH]c2=O)[C@](C)(N=[N+]=[N-])[C@@H]1O)Oc1ccccc1` (stereo partly drawn) [Compound 15], under “Hepatitis C virus, 72 h”, the EC50 stood at 1.4 µM. In the case of `CCOC(=O)[C@H](C)NP(=O)(OC[C@H]1O[C@@H](n2ccc(=O)[nH]c2=O)[C@](C)(N=[N+]=[N-])[C@@H]1O)Oc1ccc(F)cc1` (stereo partly drawn) [Compound 140], the half-maximal effective concentration (EC50) (Hepatitis C virus, 72 h) came to 1.4 µM. On to `CCOC(=O)[C@H](C)NP(=O)(OC[C@H]1O[C@@H](n2cnc3c(N4CCC4)nc(N)nc32)[C@](C)(N=[N+]=[N-])[C@@H]1O)Oc1ccccc1` (stereo partly drawn) [Compound 391], for which the half-maximal effective concentration (EC50) (Hepatitis C virus, 72 h) turned out to be 1.5 µM. Regarding `COC(=O)[C@H](C)NP(=O)(OC[C@H]1O[C@@H](n2ccc(=O)[nH]c2=O)[C@](C)(N=[N+]=[N-])[C@@H]1O)Oc1ccccc1Cl` (stereo partly drawn) [Compound 40], the 50% effective concentration (EC50) (Hepatitis C virus, 72 h) was determined as 4 µM.

Consider `C[C@@]1(N=[N+]=[N-])[C@@H]2OP(=O)(OC3CCCC3)OC[C@H]2O[C@H]1n1ccc(=O)[nH]c1=O` (single isomer, unassigned) [Compound 561], for which the EC50 under setting [1] worked out at 3.1 µM. As to `CCCCOC(=O)[C@H](C)NP(=O)(OC[C@H]1O[C@@H](n2ccc(=O)[nH]c2=O)[C@](C)(N=[N+]=[N-])[C@@H]1O)Oc1ccccc1` (single isomer, unassigned) [Compound 169], the EC50 is 3.5 µM. With `CCOC(=O)[C@H](C)NP(=O)(OC[C@H]1O[C@@H](n2ccc(N)nc2=O)[C@](C)(N=[N+]=[N-])[C@@H]1O)Oc1ccccc1Cl` (stereo partly drawn) [Compound 183], the EC50 (Hepatitis C virus, 72 h) worked out at 3 µM.

Regarding `COC(=O)[C@H](C)NP(=O)(OC[C@H]1O[C@@H](n2cnc3c(OC)nc(N)nc32)[C@](C)(N=[N+]=[N-])[C@@H]1O)Oc1ccc(F)cc1` (single isomer, unassigned) [Compound 267], the concentration for a half-maximal effect (EC50) is 0.7 µM.

Regarding `CCCCOC(=O)[C@H](C)NP(=O)(OC[C@H]1O[C@@H](n2ccc(=O)[nH]c2=O)[C@](C)(N=[N+]=[N-])[C@@H]1O)Oc1cccc2ccccc12` (single isomer, unassigned) [Compound 155], the EC50 (Hepatitis C virus, 72 h) is 2.2 µM. Regarding `C[C@H](NP(=O)(OC[C@H]1O[C@@H](n2ccc(=O)[nH]c2=O)[C@](C)(N=[N+]=[N-])[C@@H]1O)Oc1ccc2c(c1)OCO2)C(=O)OCc1ccccc1` (stereo partly drawn) [Compound 306], the EC50 amounted to 1.3 µM.
